Source: ChEMBL document CHEMBL3045937, “Synthesis and hypoglycemic activity evaluation of 7-alkoxyl-rhein” (2012)

Experiments:
Homo sapiens = organism: Homo sapiens; experiment: Inhibition of alpha-glucoamylase (unknown origin) assessed as 1-Ki/Kc X 100% at 100 mg/l after 10 min spectrophotometry
[1] = Inhibition of alpha-glucoamylase (unknown origin) assessed as Ki/Kc at 100 mg/l after 10 min spectrophotometry; values are per cent of control; settings: Homo sapiens
Mus musculus [2] = experiment: Hypoglycemic activity in alloxan-induced diabetic Mus musculus (mouse) assessed as blood glucose level at 10 mg/kg, qd for 14 days measured on 14th day (reference value: 19.04 +/- 1.27 mmol/l); format: functional
Mus musculus [3] = experiment: Hypoglycemic activity in alloxan-induced diabetic Mus musculus (mouse) assessed as blood glucose level at 10 mg/kg, qd for 14 days measured on 7th day (reference value: 19.79 +/- 1.28 mmol/l); format: functional
Mus musculus [4] = experiment: Hypoglycemic activity in alloxan-induced diabetic Mus musculus (mouse) assessed as blood glucose level at 50 mg/kg, qd for 14 days measured on 7th day (reference value: 19.79 +/- 1.28 mmol/l); format: functional
Mus musculus [5] = experiment: Hypoglycemic activity in alloxan-induced diabetic Mus musculus (mouse) assessed as blood glucose level at 20 mg/kg, qd for 14 days measured on 14th day (reference value: 19.04 +/- 1.27 mmol/l); format: functional
Mus musculus [6] = experiment: Hypoglycemic activity in alloxan-induced diabetic Mus musculus (mouse) assessed as blood glucose level at 50 mg/kg, qd for 14 days measured on 14th day (reference value: 19.04 +/- 1.27 mmol/l); format: functional
Mus musculus [7] = experiment: Hypoglycemic activity in alloxan-induced diabetic Mus musculus (mouse) assessed as blood glucose level at 20 mg/kg, qd for 14 days measured on 7th day (reference value: 19.79 +/- 1.28 mmol/l); format: functional

SMILES | inhibition (Homo sapiens) | residual activity [1] | Activity (Mus musculus [2]) | Activity (Mus musculus [3]) | Activity (Mus musculus [4]) | Activity (Mus musculus [5]) | Activity (Mus musculus [6]) | Activity (Mus musculus [7])
CCCCOc1cc(O)c2c(c1)C(=O)c1cc(C(=O)O)cc(O)c1C2=O | 45% | 55% |  |  |  |  |  | 
C[C@H]1O[C@H](O[C@H]2[C@H](O)[C@@H](O)[C@@H](O[C@H]3[C@H](O)[C@@H](O)C(O)O[C@@H]3CO)O[C@@H]2CO)[C@H](O)[C@@H](O)[C@@H]1N[C@H]1C=C(CO)[C@@H](O)[C@H](O)[C@H]1O (some centres not stated) [ACARBOSE] | 91.4% | 8.6% | 6.87 mmol/L | 10.58 mmol/L |  |  |  | 
Cc1cc(O)c2c(c1)C(=O)c1cc(O)cc(O)c1C2=O | 23.6% | 76.4% |  |  |  |  |  | 
CCCCCCCCOc1cc(O)c2c(c1)C(=O)c1cc(C(=O)O)cc(O)c1C2=O | 60.6% | 39.4% | 12.03 mmol/L | 17.05 mmol/L | 10.05 mmol/L | 10.04 mmol/L | 7.03 mmol/L | 16.79 mmol/L
CCCCCCOc1cc(O)c2c(c1)C(=O)c1cc(C(=O)O)cc(O)c1C2=O | 54.5% | 45.5% |  |  |  |  |  | 
CCCCCCCCCCCCCCCCOc1cc(O)c2c(c1)C(=O)c1cc(C(=O)O)cc(O)c1C2=O | 29.8% | 70.2% |  |  |  |  |  | 
CCCCCCCCCCCCOc1cc(O)c2c(c1)C(=O)c1cc(C(=O)O)cc(O)c1C2=O | 50.7% | 49.3% |  |  |  |  |  | 
